Results: US8476449B2, “Radioactive iodine labeled organic compound or salt thereof” (Nihon Medi-Physics Co., Ltd., priority 2010, dated 2013)
Like-named read-outs stand apart in the source and are kept apart here.

What was measured:
Aβ42 aggregate = molecular target: T1, Aβ42 aggregate (Homo sapiens, UniProt P05067); assay: Evaluation experiment of binding to amyloid β (filter radioactivity); settings: Aβ42 aggregate 30 nmol/L, incubation 3 hours
T1 construct: Aβ (1-42) peptide; purchased Peptide Institute, Inc
Protocol: 0.5 mg of Aβ (1-42) peptide (purchased from Peptide Institute, Inc.) was dissolved in 2 mL of a PBS buffer containing 1 mmol/L of EDTA and incubated at 37° C. for 42 hours, thus preparing an Aβ42 aggregate. A glass tube was charged with a 10 vol % ethanol aqueous solution (900 μL), Aβ42 aggregate (50 μL, final concentration 30 nmol/L), and radioactive iodine-labeled compound 1, radioactive iodine-labeled compound 2, or radioactive iodine-labeled compound 3 (each 50 μL, 0.018-0.097 μCi), and incubation was carried out for 3 hours. B/F separation was carried out using a cell harvester (Brandel, M-24), and the radioactivity on the filter was measured in a γ counter. The proportion (%) of the radioactivity count on the filter relative to the radioactivity count of each sample used was determined, and binding of each compound to the Aβ42 aggregate was evaluated.
As a control, 4-dimethylamino-4′-iodochalcone (hereinafter, called a chalcone derivative) was prepared in accordance with a method described in the literature (Ono et al., Bioorg Med Chem, 15, 6802-6809, 2007), and the same experiment was carried out (radioactivity count in sample: […]-0.37 kBq (0.023-0.01 μCi)).

[1] = mice
Protocol: Mice were decapitated after 2, 10, 30, and 60 minutes, and then each organ was then removed after blood collection, and radiation counts were measured in a γ counter.

tau protein aggregate = tau protein aggregate (Homo sapiens, UniProt P10636); settings: tau 0.37 μmol/L, incubated 1 to 1.5 hours, PD-10 column
Protocol: Mixed solutions of a tau protein aggregate (final concentration 0.37 μmol/L, prepared in Example 9) or an non-aggregated tau protein (final concentration 0.37 μmol/L) and radioactive iodine-labeled compound 1 (2.0 kBq (0.055 μCi)), radioactive iodine-labeled compound 2 (20 kBq (0.55 μCi)) or radioactive iodine-labeled form 3 (2.0 kBq (0.055 μCi)) were incubated for 1 hour to 1.5 hours, and then subjected to size exclusion chromatography (PD-10 column (GE Healthcare Japan), eluent: phosphate buffered-saline (PBS)). Subsequently, the radioactivity of an eluted fraction of the tau protein aggregate or the non-aggregated tau protein was measured in a γ counter.

[2] = 2 minutes after tail vein administration
[3] = 10 minutes after tail vein administration
[4] = 30 minutes after tail vein administration
[5] = 60 minutes after tail vein administration

T1 sequence (P05067 672-713 limits assumed): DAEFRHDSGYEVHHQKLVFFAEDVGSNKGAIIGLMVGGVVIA
tau protein aggregate, sequence (P10636 1-441 isoform P10636-8): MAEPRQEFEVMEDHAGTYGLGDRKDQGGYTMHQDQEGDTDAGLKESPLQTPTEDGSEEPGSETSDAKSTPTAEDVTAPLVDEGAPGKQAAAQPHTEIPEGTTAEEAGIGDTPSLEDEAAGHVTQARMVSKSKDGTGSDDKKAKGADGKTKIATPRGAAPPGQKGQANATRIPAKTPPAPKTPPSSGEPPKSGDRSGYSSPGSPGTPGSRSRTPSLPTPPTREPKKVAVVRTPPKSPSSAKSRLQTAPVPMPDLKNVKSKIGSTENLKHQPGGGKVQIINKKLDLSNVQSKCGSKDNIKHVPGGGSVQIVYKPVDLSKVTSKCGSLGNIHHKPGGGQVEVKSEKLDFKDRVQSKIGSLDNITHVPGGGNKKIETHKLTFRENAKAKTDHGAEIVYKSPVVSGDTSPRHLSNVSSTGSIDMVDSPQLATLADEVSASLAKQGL

## CN(C)c1ccc(/C=C/C(=O)c2ccc(I)cc2)cc1 [chalcone derivative, 4-dimethylamino-4′-iodochalcone, reference compound]
Aβ42 aggregate
  Binding to the Aβ42 aggregate (proportion of radioactivity count on the filter): exhibited binding to the Aβ42 aggregate

## CCOC(=O)CN1C(=O)/C(=C/c2ccc(-c3cccc([125I])c3)o2)SC1=S [Radioactive iodine-labeled compound 1, (Z)-Ethyl-2-(5-((5-(3-(^125I)iodophenyl)furan-2-yl)methylene)-4-oxo-2-thioxothiazolidin-3-yl) acetate]
[1]; [2]
  Amount of radioactivity in organ: Blood: 6.70 ± 0.53 % ID/g
  Amount of radioactivity in organ: Brain: 0.23 ± 0.02 % ID/g
  Amount of radioactivity in organ: Heart: 9.41 ± 0.49 % ID/g
  Amount of radioactivity in organ: Intestine: 1.77 ± 0.33 % ID/g
  Amount of radioactivity in organ: Kidney: 8.50 ± 0.83 % ID/g
  Amount of radioactivity in organ: Liver: 43.1 ± 2.07 % ID/g
  Amount of radioactivity in organ: Lung: 13.6 ± 1.00 % ID/g
  Amount of radioactivity in organ: Pancreas: 1.74 ± 0.19 % ID/g
  Amount of radioactivity in organ: Spleen: 6.70 ± 0.54 % ID/g
  Amount of radioactivity in organ: Stomach: 0.75 ± 0.17 % ID/g
[1]; [3]
  Amount of radioactivity in organ: Blood: 3.58 ± 0.37 % ID/g
  Amount of radioactivity in organ: Brain: 0.16 ± 0.01 % ID/g
  Amount of radioactivity in organ: Heart: 5.05 ± 0.39 % ID/g
  Amount of radioactivity in organ: Intestine: 7.97 ± 1.24 % ID/g
  Amount of radioactivity in organ: Kidney: 7.64 ± 0.69 % ID/g
  Amount of radioactivity in organ: Liver: 29.5 ± 2.17 % ID/g
  Amount of radioactivity in organ: Lung: 4.44 ± 0.52 % ID/g
  Amount of radioactivity in organ: Pancreas: 1.75 ± 0.18 % ID/g
  Amount of radioactivity in organ: Spleen: 4.11 ± 0.80 % ID/g
  Amount of radioactivity in organ: Stomach: 1.53 ± 0.44 % ID/g
[1]; [4]
  Amount of radioactivity in organ: Blood: 2.27 ± 0.44 % ID/g
  Amount of radioactivity in organ: Brain: 0.15 ± 0.03 % ID/g
  Amount of radioactivity in organ: Heart: 2.38 ± 0.38 % ID/g
  Amount of radioactivity in organ: Intestine: 15.1 ± 1.82 % ID/g
  Amount of radioactivity in organ: Kidney: 6.42 ± 1.17 % ID/g
  Amount of radioactivity in organ: Liver: 14.7 ± 2.27 % ID/g
  Amount of radioactivity in organ: Lung: 2.31 ± 0.46 % ID/g
  Amount of radioactivity in organ: Pancreas: 1.16 ± 0.17 % ID/g
  Amount of radioactivity in organ: Spleen: 2.66 ± 0.84 % ID/g
  Amount of radioactivity in organ: Stomach: 3.65 ± 0.78 % ID/g
[1]; [5]
  Amount of radioactivity in organ: Blood: 1.59 ± 0.14 % ID/g
  Amount of radioactivity in organ: Brain: 0.11 ± 0.02 % ID/g
  Amount of radioactivity in organ: Heart: 1.39 ± 0.19 % ID/g
  Amount of radioactivity in organ: Intestine: 21.0 ± 2.73 % ID/g
  Amount of radioactivity in organ: Kidney: 3.91 ± 0.18 % ID/g
  Amount of radioactivity in organ: Liver: 11.3 ± 0.87 % ID/g
  Amount of radioactivity in organ: Lung: 1.56 ± 0.22 % ID/g
  Amount of radioactivity in organ: Pancreas: 0.73 ± 0.08 % ID/g
  Amount of radioactivity in organ: Spleen: 1.94 ± 0.40 % ID/g
  Amount of radioactivity in organ: Stomach: 4.51 ± 0.38 % ID/g
Aβ42 aggregate
  Binding to the Aβ42 aggregate (proportion of radioactivity count on the filter): significantly lower
Tau protein aggregate
  Radioactivity of eluted fraction: aggregated tau vs non aggregated tau vs buffer: specifically binding to a tau protein aggregate

## CCOC(=O)CN1C(=O)/C(=C/c2ccc(-c3cccc([125I])c3)o2)NC1=S [Radioactive iodine-labeled compound 2, (Z)-Ethyl-2-(4-((5-(3-(^125I)iodophenyl)furan-2-yl)methylene)-5-oxo-2-thioxoimidazolidin-l-yl) acetate]
[1]; [2]
  Amount of radioactivity in organ: Blood: 9.49 ± 0.82 % ID/g
  Amount of radioactivity in organ: Brain: 0.57 ± 0.07 % ID/g
  Amount of radioactivity in organ: Heart: 7.02 ± 1.23 % ID/g
  Amount of radioactivity in organ: Intestine: 1.85 ± 0.26 % ID/g
  Amount of radioactivity in organ: Kidney: 9.21 ± 0.68 % ID/g
  Amount of radioactivity in organ: Liver: 32.2 ± 1.67 % ID/g
  Amount of radioactivity in organ: Lung: 10.8 ± 1.28 % ID/g
  Amount of radioactivity in organ: Pancreas: 1.79 ± 0.27 % ID/g
  Amount of radioactivity in organ: Spleen: 9.16 ± 2.04 % ID/g
  Amount of radioactivity in organ: Stomach: 0.93 ± 0.36 % ID/g
[1]; [3]
  Amount of radioactivity in organ: Blood: 2.38 ± 0.88 % ID/g
  Amount of radioactivity in organ: Brain: 0.32 ± 0.02 % ID/g
  Amount of radioactivity in organ: Heart: 2.05 ± 0.29 % ID/g
  Amount of radioactivity in organ: Intestine: 7.88 ± 1.46 % ID/g
  Amount of radioactivity in organ: Kidney: 9.11 ± 1.15 % ID/g
  Amount of radioactivity in organ: Liver: 32.1 ± 2.09 % ID/g
  Amount of radioactivity in organ: Lung: 3.89 ± 0.32 % ID/g
  Amount of radioactivity in organ: Pancreas: 0.98 ± 0.08 % ID/g
  Amount of radioactivity in organ: Spleen: 12.2 ± 2.28 % ID/g
  Amount of radioactivity in organ: Stomach: 3.39 ± 3.03 % ID/g
[1]; [4]
  Amount of radioactivity in organ: Blood: 1.79 ± 0.11 % ID/g
  Amount of radioactivity in organ: Brain: 0.18 ± 0.02 % ID/g
  Amount of radioactivity in organ: Heart: 1.19 ± 0.39 % ID/g
  Amount of radioactivity in organ: Intestine: 17.7 ± 2.22 % ID/g
  Amount of radioactivity in organ: Kidney: 3.86 ± 0.85 % ID/g
  Amount of radioactivity in organ: Liver: 22.6 ± 3.42 % ID/g
  Amount of radioactivity in organ: Lung: 2.09 ± 0.43 % ID/g
  Amount of radioactivity in organ: Pancreas: 0.56 ± 0.10 % ID/g
  Amount of radioactivity in organ: Spleen: 13.6 ± 4.29 % ID/g
  Amount of radioactivity in organ: Stomach: 3.39 ± 2.98 % ID/g
[1]; [5]
  Amount of radioactivity in organ: Blood: 1.50 ± 0.10 % ID/g
  Amount of radioactivity in organ: Brain: 0.10 ± 0.03 % ID/g
  Amount of radioactivity in organ: Heart: 1.44 ± 0.39 % ID/g
  Amount of radioactivity in organ: Intestine: 23.4 ± 5.37 % ID/g
  Amount of radioactivity in organ: Kidney: 2.68 ± 0.75 % ID/g
  Amount of radioactivity in organ: Liver: 20.2 ± 1.93 % ID/g
  Amount of radioactivity in organ: Lung: 1.70 ± 0.45 % ID/g
  Amount of radioactivity in organ: Pancreas: 0.45 ± 0.08 % ID/g
  Amount of radioactivity in organ: Spleen: 10.0 ± 2.49 % ID/g
  Amount of radioactivity in organ: Stomach: 5.32 ± 2.68 % ID/g
Aβ42 aggregate
  Binding to the Aβ42 aggregate (proportion of radioactivity count on the filter): significantly lower
Tau protein aggregate
  Radioactivity of eluted fraction: aggregated tau vs non aggregated tau vs buffer: specifically binding to a tau protein aggregate
